# According to PMC7259601 (PLoS ONE, 2020):
# Key:
# [1] = molecular target: T1, MAO-A (Mus musculus, UniProt Q64133); assay: L-5-HTP-induced symptoms test; format: in vivo, CD1 mice
# T1 construct: from tissue; host or cells: mouse brain (homogenate ex vivo; living animal in the L-5-HTP test)
# T1 sequence (Q64133 1-526): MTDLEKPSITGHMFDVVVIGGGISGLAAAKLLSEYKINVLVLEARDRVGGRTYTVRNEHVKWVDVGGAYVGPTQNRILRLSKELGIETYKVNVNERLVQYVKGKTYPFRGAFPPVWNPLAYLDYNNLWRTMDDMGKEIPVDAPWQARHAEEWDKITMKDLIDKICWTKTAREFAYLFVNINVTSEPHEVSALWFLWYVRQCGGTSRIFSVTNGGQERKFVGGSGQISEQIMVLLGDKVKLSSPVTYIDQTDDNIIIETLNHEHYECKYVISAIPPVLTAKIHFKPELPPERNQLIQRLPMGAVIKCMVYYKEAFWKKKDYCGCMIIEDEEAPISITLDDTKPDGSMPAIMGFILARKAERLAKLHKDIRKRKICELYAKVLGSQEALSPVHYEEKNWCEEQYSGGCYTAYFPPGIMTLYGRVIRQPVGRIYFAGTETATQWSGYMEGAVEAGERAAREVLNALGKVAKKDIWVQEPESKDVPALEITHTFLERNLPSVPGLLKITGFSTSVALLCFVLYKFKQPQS
# Procedure: Male C57BL/6 mice (8 weeks of age, 25-30 g) procured from Harlan Interfauna Iberica were housed in the same condition that in MAO-B PEA section. This test was performed essentially as previously described. Test compound was administered p.o. at several dose levels to groups of mice (N = 10/dose) 60 min before an i.p. injection of L-5-HTP (100 mg/kg). This dose of 5-L-HTP produced no effects in control animals. […] Studies were performed in accordance with the institutional guidelines for the care and use of laboratory animals (European Communities Council Directive 86/609/EEC) established by the Ethical Committee for Animal Experimentation at the PRAAL-PCB.
# This test was performed essentially as previously described [90](Koe et al., 1983). Test compound was administered p.o. at several dose levels 60 min before an i.p. injection of L-5-HTP. […] One score assigned to each symptom observed per animal, giving a maximal obtainable score of 30 per group of 10 mice.
# Behavior was rated as outline above.
# [2] = molecular target: MAO-B (Mus musculus, UniProt Q8BW75); settings: p.o. gavage, followed by 25 mg/kg PEA
# Sequence of MAO-B (Mus musculus, UniProt Q8BW75) (Q8BW75 whole entry): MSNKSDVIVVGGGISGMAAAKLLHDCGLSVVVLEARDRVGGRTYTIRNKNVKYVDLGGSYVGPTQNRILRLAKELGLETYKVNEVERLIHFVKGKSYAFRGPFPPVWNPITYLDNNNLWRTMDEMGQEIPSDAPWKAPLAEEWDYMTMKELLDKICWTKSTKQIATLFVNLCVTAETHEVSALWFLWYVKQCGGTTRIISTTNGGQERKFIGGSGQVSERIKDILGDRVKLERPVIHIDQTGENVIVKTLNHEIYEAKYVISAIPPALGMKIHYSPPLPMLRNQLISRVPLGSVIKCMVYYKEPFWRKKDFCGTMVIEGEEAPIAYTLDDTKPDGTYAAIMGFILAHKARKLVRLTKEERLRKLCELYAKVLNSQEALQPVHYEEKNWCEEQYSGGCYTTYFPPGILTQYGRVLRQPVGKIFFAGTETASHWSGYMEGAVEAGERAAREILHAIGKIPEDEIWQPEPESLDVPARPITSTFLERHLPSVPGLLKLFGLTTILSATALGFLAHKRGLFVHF
# [3] = test system: SETD1 +/- mice; parameters: method as in PMID 31606247; settings: cited from earlier work
# [4] = test system: MAO-B; settings: 3 mg/kg/day; cited from earlier work
# [5] = molecular target: T2, brain MAO-B (Mus musculus, UniProt Q8BW75); assay: MPTP neurotoxicity model; format: in vivo, C57BL/6 mice; settings: i.p. 3 mg/kg
# T2 construct: from tissue; host or cells: mouse brain (homogenate ex vivo; living animal in the MPTP and PEA tests)
# T2 sequence (Q8BW75 whole entry): as above
# [6] = test system: SAMP8 mice; assay: Novel Object Recognition Test (NORT); format: in vivo, mouse; settings: 3 mg/kg/day (Exp4), p = 0.12
# Procedure: Both male and female mice from the senescence accelerated strain SAMP8 and its control SAMR1 of different ages (see Table S3 for details) were used in these studies. Mice were breed in the animal facilities of the Pharmacy Faculty (University of Barcelona), maintained in a at 22 ± 2 °C controlled temperature in a 12 hr light / dark cycle (lights on at 8:00 am; 300 lux/0 lux) with ad libitum access to food (2018 TEKLAD, Harlan) and water. Male mice were housed individually (males) or in groups of 4-5 animals (females) in plastic colony boxes with a sawdust bedding material. […] SAMR1 mice treated with vehicle were included as a control. All drugs were administered via drinking water and diluted in vehicle. Drug concentration was calculated weekly in function of body weight and corrected in function of drinking water consumption. Cognitive function was evaluated by NORT, social behavior was evaluated by RI and anxiety and motor function were evaluated by EPM and OF. When necessary, animals were deeply anesthetized (80 mg/kg sodium pentobarbital) and brain samples (hippocampus, (prefrontal) cortex) were micro-dissected and processed according to the downstream analysis.
# The protocol was performed as previously described. Briefly, animals were placed in a 90°- two-arm maze. Mice were habituated to the apparatus for 10 min during 3 consecutive days. On day 4, two identical novel objects (A+A or B+B) were placed at the end of each arm and animals performed a 10-min acquisition trial. A 10-min retention trial was carried out 2 hr after the acquisition trial with object A and B. Time exploring the novel (NO) and the familiar object (FO) was measured and a discrimination Index (DI) was defined as (NO-FO)/(NO+FO). In some experiments, a more restrictive threshold was applied and animals exploring less than 5 sec (NO+FO) were excluded from the analysis (Table S3).
# Novel Object Recognition Test (NORT): Time exploring the novel (NO) and the familiar object (FO) was measured and a discrimination Index (DI) was defined as (NO-FO)/(NO+FO). In some experiments, a more restrictive threshold was applied and animals exploring less that 5 sec (NO+FO) were excluded from the analysis (Table S3). Open Field (OF): Locomotor activity was analyzed by video-tracking over the captured images using SMART® (v 2.5.21 (rat) or v3.0 (mice), PanLab, SLU, Spain).
# [7] = test system: KDM1A-E8a KO mice; parameters: method as in PMID 26976584; settings: cited from earlier work
# [8] = test system: NMDA receptor NR1 subunit hypofunction mice; parameters: method as in PMID 30580376; settings: cited from earlier work
compound,measurement,setting,value
"N[C@@H]1C[C@H]1c1ccccc1 (racemic) [TCP, tranylcypromine]",ED50 potentiation of L-5-HTP-induced symptoms,"[1]; p.o. gavage, followed by 100 mg/kg L-5-HTP i.p.",1.4 mg/kg
same,ED50 potentiation of PEA-induced symptoms,[2],1.1 mg/kg
N[C@H]1CC[C@H](N[C@@H]2C[C@H]2c2ccccc2)CC1 [Iadademstat],cortical synaptic plasticity deficit and working memory,[3],reversed cortical synaptic plasticity deficit and the working memory
"C#CCN[C@@H]1CCc2ccccc21 [RSG, rasagiline]",MAO-B inhibition at the dose used,[4],complete MAO-B inhibition
same,protection against the MPTP insult,[5],full protection
same,NORT discrimination capacity,[6],tendency for improvement without reaching significance
O=C(CCCCCCC(=O)Nc1ccccc1)NO [SAHA],deficient stress response and low anxiety phenotype,[7],rescued
"C#CCN(C)[C@H](C)Cc1ccccc1 [SLG, selegiline]",ED50,"[1]; mouse, read-out: ED50 potentiation of L-5-HTP-induced symptoms",42.2 mg/kg
Cc1nnc(NC(=O)c2cccc([C@@H]3C[C@H]3NC3CCC3)c2)s1 [T-448],learning function,[8],improved the learning function
